Reference: patent US20240368113A1, “AMIDE COMPOUND AND USE THEREOF” (Chengdu Fendi Pharmaceutical Co. Ltd., priority 2021, published 2024)

Target: T1, GSPT1 (Homo sapiens, UniProt P15170)
Test: Western blot of GSPT1 degradation in NB-4 cells
Type: cell-based
Design: endogenous in cells; host or cells: NB-4
Conditions: 0.01 μM, 4 h treatment, western blot (FIG. 1)
Method: (§1) Test Case 1: Regulatory Effect of the Present Invention Compound on GSPT1 in MV-4-11 Cells MV-4-11 (human myeloid monocytic leukemia cells) and NB-4 (human acute promyelocytic leukemia cells) cells were treated with medium RPMI 1640+10% FBS at 1*10^6/well was seeded in 6-well plates, then compounds were added for 4 h treatment, DMSO was used as a blank control, and cells were collected by centrifugation. Western blot analysis was performed with antibody labeling (Anti-GSPT1: CellSignaling Technology #14980s; Anti-GAPDH: HuabioET601-4; Goatanti-RabbitIgG-HRPantibody: HuabioHA1001) for detection on a Bio-Rad or MINICHEMI™ imaging system.

T1 sequence (P15170 whole entry): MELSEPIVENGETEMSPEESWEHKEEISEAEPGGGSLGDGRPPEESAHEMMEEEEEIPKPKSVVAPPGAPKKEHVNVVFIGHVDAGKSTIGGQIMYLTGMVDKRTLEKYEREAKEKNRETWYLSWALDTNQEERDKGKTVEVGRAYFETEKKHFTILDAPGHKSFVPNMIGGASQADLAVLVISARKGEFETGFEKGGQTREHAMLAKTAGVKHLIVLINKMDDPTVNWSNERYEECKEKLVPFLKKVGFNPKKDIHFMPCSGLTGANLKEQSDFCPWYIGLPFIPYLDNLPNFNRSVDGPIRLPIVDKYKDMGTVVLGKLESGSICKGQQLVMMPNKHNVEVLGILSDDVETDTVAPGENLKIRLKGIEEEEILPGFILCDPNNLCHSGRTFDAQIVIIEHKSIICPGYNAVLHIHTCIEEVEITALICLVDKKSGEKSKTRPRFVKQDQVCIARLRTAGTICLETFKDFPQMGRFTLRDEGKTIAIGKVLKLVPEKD

Compound	degradation of GSPT1
Nc1ccccc1C#CC(=O)NCc1ccc2c(c1)CN(C1CCC(=O)NC1=O)C2=O (stereo not drawn) [Compound 83]	significantly degradation

Same assay, conditions: pretreatment with proteasome inhibitor MG132 or NEDD8 activating enzyme inhibitor MLN4924

Compound	compound-induced degradation of GSPT1 after pretreatment with MG132 or MLN4924
Nc1ccccc1C#CC(=O)NCc1ccc2c(c1)CN(C1CCC(=O)NC1=O)C2=O (stereo not drawn) [Compound 83]	completely blocked

System: MV-4-11 cells
Test: Inhibition of tumor cell proliferation (CellTiter-Glo)
Type: cell-based
Conditions: Homo sapiens, MV4-11, 72 h, read-out: IC50 of inhibitory activity of tumor cell proliferation
Method: MV-4-11 cells were diluted with medium (RPM1640+10% FBS+1% PS) and plated at 4000 cells/well in a white-walled clear-bottom 96-well plate. MV-4-11 cells were plated and incubated in a 5% CO2, 37° C. incubator for 2 hours. Cells were treated with the indicated concentration of compound or DMSO (control), and placed in a 5% CO2, 37° C. incubator for 72 h after dosing. After the end of the culture, equilibrate at room temperature for 30 min, add 100 μl of CellTiter-Glo® Reagent to each well, and shake the microplate shaker for 2 min. After 10 min of incubation at room temperature, the luminescence was measured by a microplate reader, and the cell-free wells were used as the background wells. CC-90009 (celegen patent phase I) was used as a control, and its structural formula was as follows: 0

Compound	IC50
O=C(C#Cc1ccc(OC(=O)N2CCC(N3CCCCC3)CC2)cc1)NCc1ccc2c(c1)CN(C1CCC(=O)NC1=O)C2=O (stereo not drawn) [Compound 72]	> 100 nM
CC1(C)COP(=O)(Oc2ccc(C#CC(=O)NCc3ccc4c(c3)CN(C3CCC(=O)NC3=O)C4=O)cc2)OC1 (stereo not drawn) [Compound 82]	10 to 100 nM
COP(=O)(OC)Oc1ccc(C#CC(=O)NCc2ccc3c(c2)CN(C2CCC(=O)NC2=O)C3=O)cc1 (stereo not drawn) [Compound 80]	10 to 100 nM

Same assay, conditions: Homo sapiens, MV4-11; MV-4-11 cells, 72 h, CellTiter-Glo; read-out: IC50 of inhibitory activity of tumor cell proliferation

Compound	IC50
CCc1ccc(C#CC(=O)NCc2ccc3c(c2)CN(C2CCC(=O)NC2=O)C3=O)cc1 (stereo not drawn) [Compound 1]	< 1 nM
O=C1CCC(N2Cc3cc(CNC(=O)C(F)(F)c4ccc(Cl)cc4)ccc3C2=O)C(=O)N1 (stereo not drawn) [CC-90009]	10 to 100 nM
Nc1ccccc1C#CC(=O)NCc1ccc2c(c1)CN(C1CCC(=O)NC1=O)C2=O (stereo not drawn) [Compound 83]	1 to 10 nM
O=C(C#Cc1cc2cn[nH]c2cc1F)NCc1ccc2c(c1)CN(C1CCC(=O)NC1=O)C2=O (stereo not drawn) [Compound 129]	10 to 100 nM
O=C(C#Cc1ccncc1)NCc1ccc2c(c1)CN(C1CCC(=O)NC1=O)C2=O (stereo not drawn) [Compound 23]	> 100 nM
O=C(C#Cc1cc(C(=O)O)c(F)cc1F)NCc1ccc2c(c1)CN(C1CCC(=O)NC1=O)C2=O (stereo not drawn) [Compound 91]	1 to 10 nM
O=C(C#Cc1ccc(Cl)cc1)NCc1ccc2c(c1)CN(C1CCC(=O)NC1=O)C2=O (stereo not drawn) [Compound 7]	< 1 nM
O=C(C#Cc1cccc(Cl)n1)NCc1ccc2c(c1)CN(C1CCC(=O)NC1=O)C2=O (stereo not drawn) [Compound 40]	1 to 10 nM
CC(C)(C)OC(=O)c1ccccc1C#CC(=O)NCc1ccc2c(c1)CN(C1CCC(=O)NC1=O)C2=O (stereo not drawn) [Compound 69]	< 1 nM
CC(=O)c1cccc(C#CC(=O)NCc2ccc3c(c2)CN(C2CCC(=O)NC2=O)C3=O)c1 (stereo not drawn) [Compound 117]	< 1 nM
O=C(C#Cc1cccc(O)c1)NCc1ccc2c(c1)CN(C1CCC(=O)NC1=O)C2=O (stereo not drawn) [Compound 19]	1 to 10 nM
O=C(C#Cc1cccc(C(=O)O)c1)NCc1ccc2c(c1)CN(C1CCC(=O)NC1=O)C2=O (stereo not drawn) [Compound 76]	> 100 nM
O=C(C#Cc1ccc(Cl)c(C(=O)O)c1)NCc1ccc2c(c1)CN(C1CCC(=O)NC1=O)C2=O (stereo not drawn) [Compound 104]	< 1 nM
O=C(C#Cc1ccccc1)NCc1ccc2c(c1)CN(C1CCC(=O)NC1=O)C2=O (stereo not drawn) [Compound 11]	< 1 nM
Nc1ccc(-c2ccc(C#CC(=O)NCc3ccc4c(c3)CN(C3CCC(=O)NC3=O)C4=O)cc2)cc1 (stereo not drawn) [Compound 56]	< 1 nM
O=C(C#Cc1ccc2nc[nH]c(=O)c2c1)NCc1ccc2c(c1)CN(C1CCC(=O)NC1=O)C2=O (stereo not drawn) [Compound 128]	10 to 100 nM
Cc1cc(O)ccc1C#CC(=O)NCc1ccc2c(c1)CN(C1CCC(=O)NC1=O)C2=O (stereo not drawn) [Compound 112]	1 to 10 nM
COc1cccc(C#CC(=O)NCc2ccc3c(c2)CN(C2CCC(=O)NC2=O)C3=O)c1 (stereo not drawn) [Compound 46]	< 1 nM
O=C(C#Cc1ccc(O)cc1)NCc1ccc2c(c1)CN(C1CCC(=O)NC1=O)C2=O (stereo not drawn) [Compound 57]	10 to 100 nM
O=C(C#Cc1ccc(Cl)cn1)NCc1ccc2c(c1)CN(C1CCC(=O)NC1=O)C2=O (stereo not drawn) [Compound 27]	1 to 10 nM
O=C(C#Cc1ccc(F)cn1)NCc1ccc2c(c1)CN(C1CCC(=O)NC1=O)C2=O (stereo not drawn) [Compound 12]	1 to 10 nM

Compound	IC50
O=C(C#Cc1ccc(C(F)(F)F)cn1)NCc1ccc2c(c1)CN(C1CCC(=O)NC1=O)C2=O (stereo not drawn) [Compound 34]	10 to 100 nM
O=C(C#Cc1ccc2ncoc2c1)NCc1ccc2c(c1)CN(C1CCC(=O)NC1=O)C2=O (stereo not drawn) [Compound 122]	10 to 100 nM
O=C(C#Cc1ccc(Cl)cc1F)NCc1ccc2c(c1)CN(C1CCC(=O)NC1=O)C2=O (stereo not drawn) [Compound 4]	< 1 nM
O=C(C#Cc1ccc(C(=O)O)cc1)NCc1ccc2c(c1)CN(C1CCC(=O)NC1=O)C2=O (stereo not drawn) [Compound 26]	> 100 nM
CC1=C(C(=O)NCc2ccc3c(c2)CN(C2CCC(=O)NC2=O)C3=O)C(=O)c2ccccc21 (stereo not drawn) [Compound 119]	> 100 nM
O=C(C#Cc1cc2ccccc2[nH]1)NCc1ccc2c(c1)CN(C1CCC(=O)NC1=O)C2=O (stereo not drawn) [Compound 110]	1 to 10 nM
CC(C)(C)OC(=O)c1ccc(C#CC(=O)NCc2ccc3c(c2)CN(C2CCC(=O)NC2=O)C3=O)cc1 (stereo not drawn) [Compound 25]	< 1 nM
O=C(C#Cc1ccc2ocnc2c1)NCc1ccc2c(c1)CN(C1CCC(=O)NC1=O)C2=O (stereo not drawn) [Compound 123]	< 1 nM
O=C(C#Cc1cccs1)NCc1ccc2c(c1)CN(C1CCC(=O)NC1=O)C2=O (stereo not drawn) [Compound 6]	< 1 nM
O=C(C#CC1CCCCN1C(=O)C(F)(F)F)NCc1ccc2c(c1)CN(C1CCC(=O)NC1=O)C2=O (stereo not drawn) [Compound 85]	10 to 100 nM
O=C(C#Cc1cc2ccccc2o1)NCc1ccc2c(c1)CN(C1CCC(=O)NC1=O)C2=O (stereo not drawn) [Compound 98]	1 to 10 nM
Nc1cc(F)ccc1C#CC(=O)NCc1ccc2c(c1)CN(C1CCC(=O)NC1=O)C2=O (stereo not drawn) [Compound 50]	1 to 10 nM
Cc1ccc(C#CC(=O)NCc2ccc3c(c2)CN(C2CCC(=O)NC2=O)C3=O)cn1 (stereo not drawn) [Compound 31]	10 to 100 nM
N#Cc1ncccc1C#CC(=O)NCc1ccc2c(c1)CN(C1CCC(=O)NC1=O)C2=O (stereo not drawn) [Compound 43]	> 100 nM
O=C(C#Cc1ccc2[nH]ncc2c1)NCc1ccc2c(c1)CN(C1CCC(=O)NC1=O)C2=O (stereo not drawn) [Compound 107]	10 to 100 nM
O=C(C#Cc1ccc(C(F)(F)F)nc1)NCc1ccc2c(c1)CN(C1CCC(=O)NC1=O)C2=O (stereo not drawn) [Compound 60]	10 to 100 nM
Cn1nccc1C#CC(=O)NCc1ccc2c(c1)CN(C1CCC(=O)NC1=O)C2=O (stereo not drawn) [Compound 44]	> 100 nM
Nc1ccc(C#CC(=O)NCc2ccc3c(c2)CN(C2CCC(=O)NC2=O)C3=O)c(F)c1 (stereo not drawn) [Compound 48]	1 to 10 nM
Cc1ccc(C#CC(=O)NCc2ccc3c(c2)CN(C2CCC(=O)NC2=O)C3=O)cc1[N+](=O)[O-] (stereo not drawn) [Compound 51]	< 1 nM
CC(=O)Oc1ccc(C#CC(=O)NCc2ccc3c(c2)CN(C2CCC(=O)NC2=O)C3=O)cc1 (stereo not drawn) [Compound 32]	1 to 10 nM
CC(=O)c1ccccc1C#CC(=O)NCc1ccc2c(c1)CN(C1CCC(=O)NC1=O)C2=O (stereo not drawn) [Compound 116]	1 to 10 nM

Target: T2, hERG potassium channel (Homo sapiens, UniProt Q12809)
Test: hERG inhibition assay (automated patch clamp, QPatch)
Conditions: HEK293 cells expressing hERG, 3 min exposure
Method: (§2) This test example is used to measure the effect of the compound on the hERG potassium channel of the clone expressed in human embryonic kidney cells (HEK293).
(§3) Assay: cells are placed in HEPES-buffered saline solution in glass-lined 96-well plates and loaded with appropriate amounts of test and control solution (0.3% DMSO solution) at each concentration for 3 min exposure time. Dilute the compound to be tested in 0.3% DMSO. An automated parallel patch-clamp system QPatch 48 X (Sophion) was used to test the inhibition of hERG by compounds at a concentration of 3 μM.
(§4) The calculation method of the inhibition rate is as follows: (peak tail current in the control group−peak tail current in the test group)/(peak tail current in the control group)×100%.

T2 sequence (Q12809 whole entry): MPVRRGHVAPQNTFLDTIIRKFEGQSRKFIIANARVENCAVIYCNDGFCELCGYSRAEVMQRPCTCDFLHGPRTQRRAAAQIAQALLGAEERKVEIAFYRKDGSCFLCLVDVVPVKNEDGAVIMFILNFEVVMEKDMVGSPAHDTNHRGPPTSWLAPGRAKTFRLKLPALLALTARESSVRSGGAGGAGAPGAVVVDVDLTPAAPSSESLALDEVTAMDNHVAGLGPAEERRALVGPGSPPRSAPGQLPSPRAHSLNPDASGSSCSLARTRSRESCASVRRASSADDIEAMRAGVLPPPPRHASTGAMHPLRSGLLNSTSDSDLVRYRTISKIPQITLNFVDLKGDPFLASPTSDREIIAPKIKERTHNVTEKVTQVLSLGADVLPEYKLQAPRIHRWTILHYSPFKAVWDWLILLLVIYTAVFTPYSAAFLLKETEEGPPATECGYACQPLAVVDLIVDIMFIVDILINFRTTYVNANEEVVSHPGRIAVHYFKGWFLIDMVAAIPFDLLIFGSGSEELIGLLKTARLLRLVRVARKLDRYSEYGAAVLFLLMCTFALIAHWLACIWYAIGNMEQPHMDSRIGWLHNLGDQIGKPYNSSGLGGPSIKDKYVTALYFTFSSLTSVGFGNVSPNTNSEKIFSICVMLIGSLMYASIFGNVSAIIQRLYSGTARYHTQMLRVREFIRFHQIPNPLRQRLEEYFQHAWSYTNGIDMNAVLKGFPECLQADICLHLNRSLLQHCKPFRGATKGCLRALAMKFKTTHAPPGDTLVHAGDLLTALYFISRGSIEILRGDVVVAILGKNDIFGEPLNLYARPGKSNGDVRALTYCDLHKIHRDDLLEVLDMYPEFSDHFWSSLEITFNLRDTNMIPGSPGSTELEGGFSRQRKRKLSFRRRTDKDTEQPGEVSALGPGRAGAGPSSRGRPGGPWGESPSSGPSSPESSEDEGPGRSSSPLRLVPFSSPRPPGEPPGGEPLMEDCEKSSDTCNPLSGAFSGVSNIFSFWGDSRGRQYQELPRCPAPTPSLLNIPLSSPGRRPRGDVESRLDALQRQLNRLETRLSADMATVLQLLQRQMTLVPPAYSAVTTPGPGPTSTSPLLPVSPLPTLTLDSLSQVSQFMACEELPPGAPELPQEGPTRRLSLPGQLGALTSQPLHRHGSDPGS

Compound	hERG Inhibition rate (3 μM)
O=C1CCC(N2Cc3cc(CNC(=O)C(F)(F)c4ccc(Cl)cc4)ccc3C2=O)C(=O)N1 (stereo not drawn) [CC-90009]	64.48%

Target: T2, hERG potassium channel
Test: in vitro
Conditions: hERG Inhibition rate (3 μM), HEK293 cells expressing hERG, 3 min exposure
Method: as §2, §3, §4

Compound	inhibition at 3 µM
O=C1CCC(N2Cc3cc(CNC(=O)C(F)(F)c4ccc(Cl)cc4)ccc3C2=O)C(=O)N1 (stereo not drawn) [CC-90009]	64%

Target: T1, GSPT1
Test: Western blot of GSPT1 degradation in MV-4-11 cells
Type: cell-based
Design: endogenous in cells
Conditions: 10 μM, 4 h treatment, western blot (FIG. 1)
Method: as §1

Compound	degradation of GSPT1 protein
CCc1ccc(C#CC(=O)NCc2ccc3c(c2)CN(C2CCC(=O)NC2=O)C3=O)cc1 (stereo not drawn) [Compound 1]	completely degradation

Same assay, conditions: concentrations from 1.52 nM, 4 h treatment, western blot (FIG. 1)

Compound	degradation of GSPT1, concentration dependence
O=C(C#Cc1ccc(F)cn1)NCc1ccc2c(c1)CN(C1CCC(=O)NC1=O)C2=O (stereo not drawn) [Compound 12]	induced the degradation of GSPT1 more as the concentration increases
